From ChEMBL document CHEMBL3867466, “Synthesis and biological evaluation of novel 2,4,5-triarylimidazole-1,2,3-triazole derivatives via click chemistry as α-glucosidase inhibitors” (Bioorg Med Chem Lett, 2016)

Biological target: Alpha-glucosidase MAL12 (Saccharomyces cerevisiae) (UniProt P53341)
Assay: Potency index, ratio of acarbose IC50 to compound IC50 for bakers yeast alpha-glucosidase

Chain of Alpha-glucosidase MAL12 (Saccharomyces cerevisiae) (P53341 whole entry, looked up): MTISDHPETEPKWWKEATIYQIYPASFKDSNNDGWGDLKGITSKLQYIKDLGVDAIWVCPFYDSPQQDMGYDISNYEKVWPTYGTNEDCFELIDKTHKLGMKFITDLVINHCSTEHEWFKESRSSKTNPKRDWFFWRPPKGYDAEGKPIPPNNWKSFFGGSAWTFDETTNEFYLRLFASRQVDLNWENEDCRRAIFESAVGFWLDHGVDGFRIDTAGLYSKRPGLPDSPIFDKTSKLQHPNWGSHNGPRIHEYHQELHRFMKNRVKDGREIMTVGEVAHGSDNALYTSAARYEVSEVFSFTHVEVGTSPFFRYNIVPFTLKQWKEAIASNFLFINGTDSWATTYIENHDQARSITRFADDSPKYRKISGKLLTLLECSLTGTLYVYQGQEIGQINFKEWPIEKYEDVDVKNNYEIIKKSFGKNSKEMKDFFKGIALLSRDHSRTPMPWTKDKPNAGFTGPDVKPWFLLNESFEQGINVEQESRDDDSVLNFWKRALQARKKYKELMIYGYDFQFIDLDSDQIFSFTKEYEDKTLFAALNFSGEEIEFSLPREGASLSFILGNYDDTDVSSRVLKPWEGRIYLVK

With `CCOc1ccccc1NC(=O)Cn1cc(Cn2c(-c3cccc(Br)c3)nc(-c3ccccc3)c2-c2ccccc2)nn1` the Ratio IC50 was 52.
